ChEMBL document CHEMBL1914389, “Steroidal C-21 mercapto derivatives as dissociated steroids: discovery of an inhaled dissociated steroid” (Bioorg Med Chem Lett, 2011)

Tests used:
Rattus norvegicus [1] = experiment: Antiinflammatory activity in intratracheal insufflated allergen challenged Brown-Norway rat assessed as inhibition of inflammatory cell influx administered as single dose; format: functional; settings: inhaled or nasal
Rattus norvegicus [2] = experiment: Toxicity in ip dosed Brown-Norway rat assessed as decrease in thymus weight administered for 3 days; format: organism-based; settings: in vivo, 72 h
[3] = target: T1, Glucocorticoid receptor (Homo sapiens) (UniProt P04150); experiment: Transrepression activity at glucocorticoid receptor in human H292 cells assessed as inhibition of TNF-stimulated IL-6 cytokine synthesis at 1 uM relative to control; format: cell-based
T1 sequence (whole entry): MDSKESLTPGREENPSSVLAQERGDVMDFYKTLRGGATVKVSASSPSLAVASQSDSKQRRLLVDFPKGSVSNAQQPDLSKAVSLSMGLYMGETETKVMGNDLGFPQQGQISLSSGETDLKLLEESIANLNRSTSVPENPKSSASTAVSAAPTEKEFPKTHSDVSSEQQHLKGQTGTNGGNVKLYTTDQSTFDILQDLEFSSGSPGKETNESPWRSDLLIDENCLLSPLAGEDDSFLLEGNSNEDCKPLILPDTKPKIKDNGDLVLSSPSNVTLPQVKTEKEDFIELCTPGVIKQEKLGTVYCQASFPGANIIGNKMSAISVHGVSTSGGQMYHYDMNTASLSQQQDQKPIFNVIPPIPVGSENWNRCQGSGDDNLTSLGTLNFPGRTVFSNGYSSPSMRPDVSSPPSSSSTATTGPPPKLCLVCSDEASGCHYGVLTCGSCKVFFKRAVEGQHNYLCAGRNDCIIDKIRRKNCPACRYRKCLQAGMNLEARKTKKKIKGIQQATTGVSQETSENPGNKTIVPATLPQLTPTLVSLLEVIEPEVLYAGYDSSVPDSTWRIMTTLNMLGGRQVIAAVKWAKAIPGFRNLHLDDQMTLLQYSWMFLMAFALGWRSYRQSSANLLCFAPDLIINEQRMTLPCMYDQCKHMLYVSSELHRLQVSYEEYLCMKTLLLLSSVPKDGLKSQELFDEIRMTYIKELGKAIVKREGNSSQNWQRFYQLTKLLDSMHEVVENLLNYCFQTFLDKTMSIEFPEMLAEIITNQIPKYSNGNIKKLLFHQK

Rattus norvegicus [4] = experiment: Induction of thymolysis in ovalbumin-challenged Brown-Norway rat administered via nose inhalation; format: organism-based; settings: in vivo, inhaled_or_intranasal
[5] = target: T1, Glucocorticoid receptor (Homo sapiens); experiment: Transactivation activity at glucocorticoid receptor in human HepG2 cells assessed as induction of tyrosine amino transferase at 1 uM relative to control; format: cell-based
[6] = target: T2, Glucocorticoid receptor (Rattus norvegicus) (UniProt P06536); experiment: Transactivation activity at glucocorticoid receptor in rat H4II-E cells assessed as induction of tyrosine amino transferase at 1 uM relative to control; format: cell-based
T2 sequence (whole entry): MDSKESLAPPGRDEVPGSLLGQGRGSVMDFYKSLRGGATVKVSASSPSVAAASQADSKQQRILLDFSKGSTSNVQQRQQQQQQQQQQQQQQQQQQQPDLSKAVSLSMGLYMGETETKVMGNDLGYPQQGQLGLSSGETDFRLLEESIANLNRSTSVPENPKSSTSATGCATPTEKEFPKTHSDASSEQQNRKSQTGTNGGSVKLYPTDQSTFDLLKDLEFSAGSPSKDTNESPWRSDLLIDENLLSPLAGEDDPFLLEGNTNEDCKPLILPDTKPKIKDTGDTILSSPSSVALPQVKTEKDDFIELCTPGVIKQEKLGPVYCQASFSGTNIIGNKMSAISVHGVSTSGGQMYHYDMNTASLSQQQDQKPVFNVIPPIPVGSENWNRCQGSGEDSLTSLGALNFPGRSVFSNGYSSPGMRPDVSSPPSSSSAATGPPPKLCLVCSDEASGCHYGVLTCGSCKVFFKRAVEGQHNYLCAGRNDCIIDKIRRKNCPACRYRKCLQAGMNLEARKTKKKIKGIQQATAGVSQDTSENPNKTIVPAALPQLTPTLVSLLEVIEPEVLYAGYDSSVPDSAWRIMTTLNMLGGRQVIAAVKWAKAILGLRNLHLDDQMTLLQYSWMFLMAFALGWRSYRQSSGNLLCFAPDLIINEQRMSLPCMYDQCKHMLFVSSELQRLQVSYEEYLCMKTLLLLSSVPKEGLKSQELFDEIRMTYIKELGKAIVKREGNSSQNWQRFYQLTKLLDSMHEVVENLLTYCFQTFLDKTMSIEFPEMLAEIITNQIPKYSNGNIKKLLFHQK

Rattus norvegicus [7] = experiment: Toxicity in ip dosed Brown-Norway rat assessed as decrease in body weight administered for 3 days; format: organism-based; settings: in vivo, 72 h
Rattus norvegicus [8] = experiment: Toxicity in ip dosed Brown-Norway rat assessed as decrease in adrenal weight administered for 3 days; format: organism-based; settings: in vivo, 72 h
Rattus norvegicus [9] = experiment: Antiinflammatory activity in ovalbumin-challenged Brown-Norway rat assessed as improvement in lung function administered via nose as dry powder inhalation once a day for 3 days; format: functional; settings: inhaled or nasal, 72 h

- Emax [3]: 99%
- ED20 (Rattus norvegicus [4]): 0.023 mg/kg
- Emax [5]: 113%
- Emax [6]: 110%
Structure (SMILES): CCC(=O)O[C@]1(C(=O)SCF)[C@H](C)C[C@H]2[C@@H]3C[C@H](F)C4=CC(=O)C=C[C@]4(C)[C@@]3(F)[C@@H](O)C[C@@]21C [FLUTICASONE PROPIONATE]
- ED50 (Rattus norvegicus [1]): 0.14 mg/kg
- ED50 (Rattus norvegicus [2]): 0.14 mg/kg
- ED50 (Rattus norvegicus [7]): 0.34 mg/kg
- ED50 (Rattus norvegicus [8]): 0.52 mg/kg
- ED70 (Rattus norvegicus [9]): 0.021 mg/kg
